From patent US12391676B2 (H. LEE MOFFITT CANCER CENTER AND RESEARCH INSTITUTE, INC., priority 2018, dated 2025)
Read-outs that look alike come from different tables or passages of the source.

Columns and labels:
UKE1 cells = assay: Growth inhibition GI50, UKE1 cells; assay type: cell-based
BRD4 = BRD4 (Homo sapiens (Human), UniProt O60885); assay: BRD4 DSF thermal shift (ΔTm); assay type: binding; conditions: for BRD4 DSF (ΔTm): Table 2
MM1.S cells = assay: Antiproliferative activity, MM1.S cells; assay type: cell-based; conditions: Homo sapiens, Table 2, read-out: GI50 (MM1S)
Protocol: Cellular activity of promising compounds is assessed using MM.1S and MV4-11 AML cells using c-Myc levels as biomarker (6-12 hr treatment) and antiproliferative activity (48-72 hr treatment) as described (Ciceri et al., Dual kinase-bromodomain inhibitors for rationally designed polypharmacology. Nat Chem Biol 2014).

[1] = UKE1, Table 2, read-out: GI50 (UKE1)

| BRD4 DSF (ΔTm) (BRD4) [°C] | GI50 (MM1.S cells) [nM] | SMILES | GI50 (UKE1 cells; [1]) [nM] | other results |
| --- | --- | --- | --- | --- |
| 12.3 | – | Cc1ccc(Nc2nc(Nc3ccc(C4CCN(C)CC4)c(F)c3)ncc2C)cc1NS(=O)(=O)C(C)(C)C [PN2-173, N-(5-((2-((3-Fluoro-4-(1-methylpiperidin-4-yl)phenyl)amino)-5-methylpyrimidin-4-yl)amino)-2-methylphenyl)-2-methylpropane-2-sulfonamide] | 463 | – |
| 7.1 | 220 | CN1CCC(c2ccc(Nc3ncc(-c4cnn(C)c4)c(Nc4ccc(Cl)c(NS(=O)(=O)C(C)(C)C)c4)n3)cc2F)CC1 [PN1-145, N-(2-Chloro-5-((2-((3-fluoro-4-(1-methylpiperidin-4-yl)phenyl)amino)-5-(1-methyl-1H-pyrazol-4-yl)pyrimidin-4-yl)amino)phenyl)-2-methylpropane-2-sulfonamide] | – | – |
| 14.7 | 81 | Cc1cnc(Nc2cc(F)c(C3CCN(C)CC3)c(F)c2)nc1Nc1ccc(F)c(NS(=O)(=O)C(C)(C)C)c1 [PN2-123, N-(5-((2-((3,5-Difluoro-4-(1-methylpiperidin-4-yl)phenyl)amino)-5-methylpyrimidin-4-yl)amino)-2-fluorophenyl)-2-methylpropane-2-sulfonamide] | – | – |
| 13.0 | 83 | Cc1cnc(Nc2ccc(C3CCN(C)CC3)c(F)c2)nc1Nc1ccc(F)c(NS(=O)(=O)C(C)(C)C)c1 [PN2-118, N-(2-Fluoro-5-((2-((3-fluoro-4-(1-methylpiperidin-4-yl)phenyl)amino)-5-methylpyrimidin-4-yl)amino)phenyl)-2-methylpropane-2-sulfonamide] | – | – |
| 12.1 | 104 | Cc1cnc(Nc2ccc(C3CCN(C)CC3)c(F)n2)nc1Nc1ccc(F)c(NS(=O)(=O)C(C)(C)C)c1 [PN2-116, N-(2-Fluoro-5-((2-((6-fluoro-5-(1-methylpiperidin-4-yl)pyridin-2-yl)amino)-5-methylpyrimidin-4-yl)amino)phenyl)-2-methylpropane-2-sulfonamide] | – | – |
| 13.3 | – | Cc1ccc(Nc2nc(Nc3cc(F)c(C4CCN(C)CC4)c(F)c3)ncc2C)cc1NS(=O)(=O)C(C)(C)C [PN2-174, N-(5-((2-((3,5-Difluoro-4-(1-methylpiperidin-4-yl)phenyl)amino)-5-methylpyrimidin-4-yl)amino)-2-methylphenyl)-2-methylpropane-2-sulfonamide] | 194 | – |
| 7.6 | 890 | CN1CCC(c2ccc(Nc3ncc(C#N)c(Nc4ccc(Cl)c(NS(=O)(=O)C(C)(C)C)c4)n3)cc2F)CC1 [PN1-138, N-(2-Chloro-5-((5-cyano-2-((3-fluoro-4-(1-methylpiperidin-4-yl)phenyl)amino)pyrimidin-4-yl)amino)phenyl)-2-methylpropane-2-sulfonamide] | – | – |
| 13.4 | 80 | Cc1cnc(Nc2cc(F)c(C3CCN(C)CC3)c(F)c2)nc1Nc1cccc(NS(=O)(=O)C(C)(C)C)c1 [PN2-124, N-(3-((2-((3,5-Difluoro-4-(1-methylpiperidin-4-yl)phenyl)amino)-5-methylpyrimidin-4-yl)amino)phenyl)-2-methylpropane-2-sulfonamide] | – | – |
| 12.6 | – | Cc1ccc(Nc2nc(Nc3cc(F)c(C4CCN(C)CC4)cn3)ncc2C)cc1NS(=O)(=O)C(C)(C)C [PN2-175, N-(5-((2-((4-Fluoro-5-(1-methylpiperidin-4-yl)pyridin-2-yl)amino)-5-methylpyrimidin-4-yl)amino)-2-methylphenyl)-2-methylpropane-2-sulfonamide] | 220 | – |
| 14.3 | – | Cc1cnc(Nc2cc(F)c(C3CCN(C)CC3)c(F)c2)nc1Nc1cnc(Cl)c(NS(=O)(=O)C(C)(C)C)c1 [MA11-017, N-(2-chloro-5-((2-((3,5-difluoro-4-(1-methylpiperidin-4-yl)phenyl)amino)-5-methylpyrimidin-4-yl)amino)pyridin-3-yl)-2-methylpropane-2-sulfonamide] | 102 | – |
| 12.7 | 240 | CN1CCC(c2ccc(Nc3ncc(C(F)F)c(Nc4ccc(Cl)c(NS(=O)(=O)C(C)(C)C)c4)n3)cc2F)CC1 [PN1-117, N-(2-Chloro-5-((5-(difluoromethyl)-2-((3-fluoro-4-(1-methylpiperidin-4-yl)phenyl)amino)pyrimidin-4-yl)amino)phenyl)-2-methylpropane-2-sulfonamide] | – | – |
| 13.7 | 580 | CN1CCC(c2ccc(Nc3ncc(C(N)=O)c(Nc4ccc(Cl)c(NS(=O)(=O)C(C)(C)C)c4)n3)cc2F)CC1 [PN1-134, 4-((4-Chloro-3-((1,1-dimethylethyl)sulfonamido)phenyl)amino)-2-((3-fluoro-4-(1-methylpiperidin-4-yl)phenyl)amino)pyrimidine-5-carboxamide] | – | – |
| 15.2 | 93 | Cc1cnc(Nc2cc(F)c(C3CCN(C)CC3)c(F)c2)nc1Nc1ccc(Cl)c(NS(=O)(=O)C(C)(C)C)c1 [PN2-122, N-(2-Chloro-5-((2-((3,5-difluoro-4-(1-methylpiperidin-4-yl)phenyl)amino)-5-methylpyrimidin-4-yl)amino)phenyl)-2-methylpropane-2-sulfonamide] | – | – |
| 12.8 | 360 | CN1CCC(c2ccc(Nc3ncc([N+](=O)[O-])c(Nc4ccc(Cl)c(NS(=O)(=O)C(C)(C)C)c4)n3)cc2F)CC1 [PN1-132, N-(2-Chloro-5-((2-((3-fluoro-4-(1-methylpiperidin-4-yl)phenyl)amino)-5-nitropyrimidin-4-yl)amino)phenyl)-2-methylpropane-2-sulfonamide] | – | – |
| 11.4 | 320 | Cc1cnc(Nc2cc(F)c(C3CCN(C)CC3)cc2F)nc1Nc1ccc(Cl)c(NS(=O)(=O)C(C)(C)C)c1 [PN1-102, N-(2-Chloro-5-((2-((2,5-difluoro-4-(1-methylpiperidin-4-yl)phenyl)amino)-5-methylpyrimidin-4-yl)amino)phenyl)-2-methylpropane-2-sulfonamide] | – | – |

Second part, the molecule before the results:

| SMILES | BRD4 DSF (ΔTm) (BRD4) [°C] | GI50 (MM1.S cells) [nM] | GI50 (UKE1 cells; [1]) [nM] | other results |
| --- | --- | --- | --- | --- |
| Cc1cnc(Nc2ccc(C3CCN(C)CC3)c(F)c2)nc1Nc1cc(Cl)cc(NS(=O)(=O)C(C)(C)C)c1 [PN3-076, N-(3-Chloro-5-((2-((3-fluoro-4-(1-methylpiperidin-4-yl)phenyl)amino)-5-methylpyrimidin-4-yl)amino)phenyl)-2-methylpropane-2-sulfonamide] | – | – | 1100 | – |
| Cc1cnc(Nc2cc(F)c(C3CCN(C)CC3)cn2)nc1Nc1cc(Cl)cc(NS(=O)(=O)C(C)(C)C)c1 [PN3-074, N-(3-Chloro-5-((2-((4-fluoro-5-(1-methylpiperidin-4-yl)pyridin-2-yl)amino)-5-methylpyrimidin-4-yl)amino)phenyl)-2-methylpropane-2-sulfonamide] | – | – | 937 | – |
| Cc1cnc(Nc2ccc(C3CCN(C)CC3)c(F)c2)nc1Nc1cccc(NS(=O)(=O)C(C)(C)C)c1 [drawing 13] | – | – | – | DSF ΔTm (BRD4; Table 1): 12.3 °C; GI50 (UKE1 cells; UKE1, Table 1 comments, read-out: GI50 (UKE1 cells)): 110 nM |
| Cc1cnc(Nc2cc(F)c(C3CCN(C)CC3)c(F)c2)nc1Nc1cc(Cl)cc(NS(=O)(=O)C(C)(C)C)c1 [PN3-075, N-(3-Chloro-5-((2-((3,5-difluoro-4-(1-methylpiperidin-4-yl)phenyl)amino)-5-methylpyrimidin-4-yl)amino)phenyl)-2-methylpropane-2-sulfonamide] | – | – | 556 | – |
| Cc1cnc(Nc2cc(F)c(C3CCN(C)CC3)cn2)nc1Nc1cccc(NS(=O)(=O)C(C)(C)C)n1 [MA11-038, N-(6-((2-((4-fluoro-5-(1-methylpiperidin-4-yl)pyridin-2-yl)amino)-5-methylpyrimidin-4-yl)amino)pyridin-2-yl)-2-methylpropane-2-sulfonamide] | – | – | 5600 | – |
| Cc1cnc(Nc2cc(F)c(C3CCN(C)CC3)cn2)nc1Nc1cc(F)cc(NS(=O)(=O)C(C)(C)C)c1 [PN3-054, N-(3-Fluoro-5-((2-((4-fluoro-5-(1-methylpiperidin-4-yl)pyridin-2-yl)amino)-5-methylpyrimidin-4-yl)amino)phenyl)-2-methylpropane-2-sulfonamide] | – | – | 449 | – |
| Cc1cnc(Nc2ccc(C3CCN(C)CC3)c(F)c2)nc1Nc1cc(F)cc(NS(=O)(=O)C(C)(C)C)c1 [PN3-052, N-(3-Fluoro-5-((2-((3-fluoro-4-(1-methylpiperidin-4-yl)phenyl)amino)-5-methylpyrimidin-4-yl)amino)phenyl)-2-methylpropane-2-sulfonamide] | – | – | 270 | – |
| Cc1cnc(Nc2cc(F)c(C3CCN(C)CC3)c(F)c2)nc1Nc1cc(F)cc(NS(=O)(=O)C(C)(C)C)c1 [PN3-053, N-(3-((2-((3,5-Difluoro-4-(1-methylpiperidin-4-yl)phenyl)amino)-5-methylpyrimidin-4-yl)amino)-5-fluorophenyl)-2-methylpropane-2-sulfonamide] | – | – | 185 | – |
| Cc1cnc(Nc2ccc(C3=CCN(C)CC3)c(F)c2)nc1Nc1ccc(Cl)c(NS(=O)(=O)C(C)(C)C)c1 [PN1-101, N-(2-Chloro-5-((2-((3-fluoro-4-(1-methyl-1,2,3,6-tetrahydropyridin-4-yl)phenyl)amino)-5-methylpyrimidin-4-yl)amino)phenyl)-2-methylpropane-2-sulfonamide] | 13.5 | 100 | – | – |
| Cc1cnc(Nc2ccc(C3CCN(C)CC3)c(F)c2)nc1Nc1cccc(NS(=O)(=O)C(C)(C)C)n1 [MA11-032, N-(6-((2-((3-fluoro-4-(1-methylpiperidin-4-yl)phenyl)amino)-5-methylpyrimidin-4-yl)amino)pyridin-2-yl)-2-methylpropane-2-sulfonamide] | – | – | 385 | – |
| Cc1cnc(Nc2ccc(C3CCN(C)CC3)c(F)c2)cc1Nc1ccc2c(c1)N(S(=O)(=O)C(C)(C)C)CC2 [MA9-064, N4-(1-(Tert-butylsulfonyl)indolin-6-yl)-N2-(3-fluoro-4-(1-methylpiperidin-4-yl)phenyl)-5-methylpyridine-2,4-diamine] | 8.2 | 1600 | – | – |
